In paper PMC4869729 (Chemical Science, 2015):

What was measured:
thioredoxin reductase = assay: Thioredoxin reductase activity in treated Caki-1 cells; type: cell-based, human
MAPKAPK-3 = assay: Immunoblotting of MAPKAPK-3 in Auranofin treated Caki-1 cells; type: cell-based, human; details: Caki-1, Western blot (Fig. S46)
[1] = system: TrxR in human breast MCF-7 cancer cells; details: MCF-7 cells, 4 μM; cited from earlier work
[2] = system: TrxR in human ovarian A2780 cancer cells; details: 10 μM; cited from earlier work
[3] = system: human renal Caki-1 cancer cell lines; assay: XTT cytotoxicity assay, Caki-1; type: cell-based; details: read-out: IC50 Caki-1, 72 h incubation
[4] = system: non-tumorigenic human embryonic kidney cell lines HEK-293T; assay: XTT cytotoxicity assay, HEK-293T; type: cell-based; details: read-out: IC50 HEK-293T, 72 h incubation
plasmid (pBR322) DNA = assay: Electrophoresis mobility shift assay; type: binding; details: pBR322, metal/DNAbp ratios 0.25-2.0, 37 °C, 20 h
[5] = system: human renal proximal tubular cells (RPTC); assay: XTT cytotoxicity assay, RPTC; type: cell-based; details: read-out: IC50 RPTC, 72 h incubation

| IC50 (thioredoxin reductase; read-out: IC50 thioredoxin reductase, after 12 hours) [µM] | Compound | inhibition of thioredoxin reductase activity (thioredoxin reductase; 5 μM, 5 hour incubation) [%] | expression of MAPKAPK-3 (MAPKAPK-3) | inhibition of total TrxR activity [1] [%] | inhibition of total TrxR activity [2] [%] | IC50 [3] [µM] | IC50 [4] [µM] | effect on electrophoretic mobility of plasmid forms (plasmid (pBR322) DNA) | IC50 [5] [µM] |
| --- | --- | --- | --- | --- | --- | --- | --- | --- | --- |
| 0.61 | CC(=O)OC[C@H]1O[C@@H]([S-])[C@H](OC(C)=O)[C@@H](OC(C)=O)[C@@H]1OC(C)=O.CCP(CC)CC.[Au+] [Auranofin] | 74.1 | failed to down-regulate MAKPAPK-3 | 18 | 30 | – | – | – | – |
| – | N.N.[Cl][Pt][Cl] [Cisplatin] | – | – | – | – | 29 ± 4.11 | 3.27 ± 0.13 | decreased mobility of the CCC form and increased mobility of the OC form | – |
| – | COc1ccc(C[C]2([Ti+2][C]3(Cc4ccc(OC)cc4)C=CC=C3)C=CC=C2)cc1.[Cl-].[Cl-] [Titanocene Y] | – | – | – | – | 29.4 ± 4.18 | – | – | – |
| – | [Au(Hmba)(PPh3)] [compound 4] | – | – | – | – | 2.76 ± 0.35 | 1.11 ± 0.65 | did not affect the mobility of the faster-running supercoiled form | 3.87 ± 0.15 |
